ChEMBL document CHEMBL1138280, “Synthesis and characterization of 8-ethynyl-1,3-dihydro-benzo[b][1,4]diazepin-2-one derivatives: new potent non-competitive metabotropic glutamate receptor 2/3 antagonists. Part 1” (Bioorg Med Chem Lett, 2007)
Active and inactive are the calls of the source. The calls are words filed in the database; no cut-off is given here.

What was measured:
[1] = biological target: T1, Metabotropic glutamate receptor 2 (Rattus norvegicus, UniProt P31421); experiment: Displacement of [3H]LY354740 from rat mGluR2 expressed in CHO cells; assay type: cell-based
[2] = biological target: T1, Metabotropic glutamate receptor 2; experiment: Antagonist activity at rat mGlu2 expressed in CHO cells assessed as inhibition of (1S,3R)-ACPD-stimulated GTPgammaS binding; assay type: functional, cell-based
[3] = organism: Homo sapiens; experiment: Binding affinity to NMDA
[4] = biological target: Metabotropic glutamate receptor 1 (Rattus norvegicus) (UniProt P23385); experiment: Inhibition of glutamate-stimulated rat mGlu1a by calcium mobilization assay at 30 uM; assay type: functional
[5] = biological target: Metabotropic glutamate receptor 5 (Rattus norvegicus) (UniProt P31424); experiment: Inhibition of glutamate-stimulated rat mGlu5a by calcium mobilization assay at 30 uM; assay type: functional
[6] = organism: Rattus norvegicus; experiment: Displacement of [3H]L-AP4 from mGlu8a receptor
[7] = organism: Homo sapiens; experiment: Binding affinity to GABAA
[8] = biological target: Metabotropic glutamate receptor 2 (Rattus norvegicus) (UniProt P31421); experiment: Antagonist activity at rat mGluR2 expressed in CHO cells co expressing human Kir3.1 assessed as glutamate-induced inward potassium current; assay type: functional, cell-based
[9] = biological target: Metabotropic glutamate receptor 3 (Rattus norvegicus) (UniProt P31422); experiment: Antagonist activity at rat mGluR3 expressed in CHO cells co expressing human Kir3.2c assessed as glutamate-induced inward potassium current; assay type: functional, cell-based
[10] = biological target: Metabotropic glutamate receptor 2 (Rattus norvegicus) (UniProt P31421); experiment: Displacement of [3H]LY354740 from rat mGluR2 expressed in CHO cells assessed as residual binding; assay type: cell-based

T1 sequence (P31421 whole entry): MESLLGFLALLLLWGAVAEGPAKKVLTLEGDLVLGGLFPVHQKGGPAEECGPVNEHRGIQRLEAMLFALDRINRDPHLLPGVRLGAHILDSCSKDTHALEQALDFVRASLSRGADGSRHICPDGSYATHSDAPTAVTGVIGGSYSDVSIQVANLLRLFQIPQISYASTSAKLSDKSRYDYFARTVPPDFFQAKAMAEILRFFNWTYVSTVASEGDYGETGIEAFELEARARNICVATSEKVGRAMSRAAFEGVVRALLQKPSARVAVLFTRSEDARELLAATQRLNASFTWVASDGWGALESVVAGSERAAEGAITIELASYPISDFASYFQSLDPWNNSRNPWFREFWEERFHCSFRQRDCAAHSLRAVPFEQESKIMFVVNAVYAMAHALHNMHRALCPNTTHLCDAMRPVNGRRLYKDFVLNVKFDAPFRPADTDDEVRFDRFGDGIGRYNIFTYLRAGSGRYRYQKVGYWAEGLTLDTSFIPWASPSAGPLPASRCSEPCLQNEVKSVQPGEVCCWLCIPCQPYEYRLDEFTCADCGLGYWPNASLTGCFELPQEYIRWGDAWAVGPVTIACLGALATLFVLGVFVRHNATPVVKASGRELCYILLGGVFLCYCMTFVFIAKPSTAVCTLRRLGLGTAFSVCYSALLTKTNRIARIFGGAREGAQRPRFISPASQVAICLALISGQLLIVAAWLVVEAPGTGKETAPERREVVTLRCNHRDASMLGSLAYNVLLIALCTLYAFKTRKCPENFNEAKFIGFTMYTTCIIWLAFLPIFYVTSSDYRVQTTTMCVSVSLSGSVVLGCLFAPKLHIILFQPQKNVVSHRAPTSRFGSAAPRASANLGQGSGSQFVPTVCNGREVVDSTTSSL
Chain of Metabotropic glutamate receptor 2 (Rattus norvegicus) (P31421 19-872 limits assumed): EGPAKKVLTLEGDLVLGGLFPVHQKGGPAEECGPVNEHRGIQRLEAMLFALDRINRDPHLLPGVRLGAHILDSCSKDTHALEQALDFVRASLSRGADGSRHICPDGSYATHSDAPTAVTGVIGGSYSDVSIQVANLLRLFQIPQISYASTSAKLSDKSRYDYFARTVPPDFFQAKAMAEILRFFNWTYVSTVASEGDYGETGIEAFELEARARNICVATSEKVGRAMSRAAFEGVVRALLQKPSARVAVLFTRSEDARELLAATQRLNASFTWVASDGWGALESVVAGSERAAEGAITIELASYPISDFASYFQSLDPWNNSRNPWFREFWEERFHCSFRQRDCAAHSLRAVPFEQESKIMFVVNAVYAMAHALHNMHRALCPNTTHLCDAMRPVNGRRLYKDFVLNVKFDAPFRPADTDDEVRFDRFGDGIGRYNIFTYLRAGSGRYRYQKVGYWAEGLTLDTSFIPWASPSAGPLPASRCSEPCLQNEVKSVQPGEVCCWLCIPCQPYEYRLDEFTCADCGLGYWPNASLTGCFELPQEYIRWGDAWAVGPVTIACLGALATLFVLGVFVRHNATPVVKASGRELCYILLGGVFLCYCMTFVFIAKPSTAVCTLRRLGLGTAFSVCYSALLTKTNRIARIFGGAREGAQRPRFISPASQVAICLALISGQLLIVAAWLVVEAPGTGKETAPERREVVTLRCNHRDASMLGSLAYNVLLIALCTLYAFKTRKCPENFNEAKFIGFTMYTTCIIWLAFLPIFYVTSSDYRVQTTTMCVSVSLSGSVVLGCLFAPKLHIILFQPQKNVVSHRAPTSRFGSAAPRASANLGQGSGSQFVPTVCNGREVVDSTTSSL
Chain of Metabotropic glutamate receptor 1 (Rattus norvegicus) (P23385 19-1199 limits assumed): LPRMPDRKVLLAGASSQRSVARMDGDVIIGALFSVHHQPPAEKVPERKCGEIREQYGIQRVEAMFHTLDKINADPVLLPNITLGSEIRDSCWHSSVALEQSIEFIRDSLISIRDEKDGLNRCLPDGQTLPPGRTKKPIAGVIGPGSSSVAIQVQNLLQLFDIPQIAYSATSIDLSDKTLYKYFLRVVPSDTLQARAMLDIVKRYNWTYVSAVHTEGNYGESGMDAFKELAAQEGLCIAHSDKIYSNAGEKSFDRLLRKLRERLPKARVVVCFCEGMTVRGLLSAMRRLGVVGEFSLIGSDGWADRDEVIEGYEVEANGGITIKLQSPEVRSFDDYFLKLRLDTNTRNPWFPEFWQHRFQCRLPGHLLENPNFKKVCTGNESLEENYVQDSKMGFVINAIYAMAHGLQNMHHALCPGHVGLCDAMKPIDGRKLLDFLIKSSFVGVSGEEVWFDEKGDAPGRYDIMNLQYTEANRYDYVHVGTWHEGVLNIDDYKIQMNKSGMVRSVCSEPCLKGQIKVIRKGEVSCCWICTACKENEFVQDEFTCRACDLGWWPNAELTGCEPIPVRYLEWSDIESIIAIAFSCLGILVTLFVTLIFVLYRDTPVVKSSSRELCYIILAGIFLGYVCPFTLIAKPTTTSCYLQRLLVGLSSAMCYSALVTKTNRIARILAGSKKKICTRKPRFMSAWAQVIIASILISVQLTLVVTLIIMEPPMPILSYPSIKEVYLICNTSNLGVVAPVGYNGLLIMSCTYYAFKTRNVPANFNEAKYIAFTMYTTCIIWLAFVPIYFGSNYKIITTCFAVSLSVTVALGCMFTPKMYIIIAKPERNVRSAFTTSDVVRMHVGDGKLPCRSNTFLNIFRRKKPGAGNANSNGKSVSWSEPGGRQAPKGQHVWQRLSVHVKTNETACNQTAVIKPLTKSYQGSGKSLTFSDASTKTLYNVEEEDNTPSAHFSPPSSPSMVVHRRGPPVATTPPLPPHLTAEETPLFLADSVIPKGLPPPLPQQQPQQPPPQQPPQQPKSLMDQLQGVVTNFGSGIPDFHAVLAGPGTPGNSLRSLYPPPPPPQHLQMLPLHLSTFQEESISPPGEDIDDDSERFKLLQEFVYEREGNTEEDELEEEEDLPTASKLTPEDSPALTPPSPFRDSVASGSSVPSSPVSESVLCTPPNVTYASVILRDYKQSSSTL
Chain of Metabotropic glutamate receptor 3 (Rattus norvegicus) (P31422 23-879 limits assumed): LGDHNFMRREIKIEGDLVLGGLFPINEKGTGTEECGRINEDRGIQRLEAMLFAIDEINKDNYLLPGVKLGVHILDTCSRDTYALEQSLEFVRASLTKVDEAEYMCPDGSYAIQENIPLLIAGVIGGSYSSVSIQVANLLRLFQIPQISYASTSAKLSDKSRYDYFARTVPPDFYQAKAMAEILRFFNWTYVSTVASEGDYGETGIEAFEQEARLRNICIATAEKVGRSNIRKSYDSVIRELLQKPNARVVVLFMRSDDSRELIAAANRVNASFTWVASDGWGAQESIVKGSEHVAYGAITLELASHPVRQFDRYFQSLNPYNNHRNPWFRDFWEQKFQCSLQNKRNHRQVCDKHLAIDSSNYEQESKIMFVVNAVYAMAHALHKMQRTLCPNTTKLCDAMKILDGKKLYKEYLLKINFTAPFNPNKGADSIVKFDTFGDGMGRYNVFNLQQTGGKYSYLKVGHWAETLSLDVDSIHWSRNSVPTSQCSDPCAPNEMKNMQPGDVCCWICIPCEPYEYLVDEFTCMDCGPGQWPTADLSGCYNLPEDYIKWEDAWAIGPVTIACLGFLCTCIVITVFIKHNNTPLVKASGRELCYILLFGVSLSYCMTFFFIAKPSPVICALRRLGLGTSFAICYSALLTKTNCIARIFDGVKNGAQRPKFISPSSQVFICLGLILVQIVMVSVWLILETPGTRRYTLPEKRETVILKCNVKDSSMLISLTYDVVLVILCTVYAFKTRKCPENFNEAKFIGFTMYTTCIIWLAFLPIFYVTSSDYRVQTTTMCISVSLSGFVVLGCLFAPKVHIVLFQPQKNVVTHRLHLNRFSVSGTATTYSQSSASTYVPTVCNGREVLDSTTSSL
Chain of Metabotropic glutamate receptor 5 (Rattus norvegicus) (P31424 21-1203 limits assumed): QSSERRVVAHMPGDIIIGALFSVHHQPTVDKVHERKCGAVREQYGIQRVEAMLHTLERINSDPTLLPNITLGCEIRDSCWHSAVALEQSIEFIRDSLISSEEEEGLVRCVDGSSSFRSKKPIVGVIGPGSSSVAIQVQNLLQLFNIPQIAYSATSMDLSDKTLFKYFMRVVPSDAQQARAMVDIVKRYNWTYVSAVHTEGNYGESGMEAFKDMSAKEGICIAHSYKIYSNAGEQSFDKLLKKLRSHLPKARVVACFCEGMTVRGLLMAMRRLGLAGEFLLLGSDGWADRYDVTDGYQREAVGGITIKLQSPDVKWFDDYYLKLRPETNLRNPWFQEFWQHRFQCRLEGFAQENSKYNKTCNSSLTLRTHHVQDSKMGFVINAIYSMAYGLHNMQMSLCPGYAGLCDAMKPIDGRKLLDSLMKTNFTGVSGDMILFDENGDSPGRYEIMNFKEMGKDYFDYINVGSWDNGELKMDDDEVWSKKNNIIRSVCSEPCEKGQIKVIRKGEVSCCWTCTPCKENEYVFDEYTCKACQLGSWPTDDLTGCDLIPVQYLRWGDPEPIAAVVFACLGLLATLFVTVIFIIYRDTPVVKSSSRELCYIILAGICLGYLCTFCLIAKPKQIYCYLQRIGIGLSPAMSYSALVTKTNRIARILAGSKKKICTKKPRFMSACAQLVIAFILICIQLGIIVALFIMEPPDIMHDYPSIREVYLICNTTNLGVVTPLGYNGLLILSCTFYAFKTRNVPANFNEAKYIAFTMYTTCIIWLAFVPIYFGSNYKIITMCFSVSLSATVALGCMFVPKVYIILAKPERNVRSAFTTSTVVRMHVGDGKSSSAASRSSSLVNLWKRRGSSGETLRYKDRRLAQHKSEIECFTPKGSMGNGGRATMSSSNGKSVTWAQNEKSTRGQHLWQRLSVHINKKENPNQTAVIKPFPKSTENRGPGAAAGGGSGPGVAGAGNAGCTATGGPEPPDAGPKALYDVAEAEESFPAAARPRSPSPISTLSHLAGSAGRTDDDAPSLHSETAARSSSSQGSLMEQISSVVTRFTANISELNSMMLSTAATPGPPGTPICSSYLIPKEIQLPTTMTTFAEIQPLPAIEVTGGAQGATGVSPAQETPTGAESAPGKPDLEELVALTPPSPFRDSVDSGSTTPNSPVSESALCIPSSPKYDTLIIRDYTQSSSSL

SMILES	IC50 [1]	also measured
NC(=O)c1cccc(C2=Nc3ccc(C#Cc4ccccc4)cc3NC(=O)C2)c1	358 nM	
N#Cc1cccc(C2=Nc3cc(OCC(=O)O)c(C#Cc4ccccc4)cc3NC(=O)C2)c1	600 nM	
Cc1ccc2c(c1)NC(=O)CC(c1cccc(Cl)c1)=N2	2820 nM	
N#Cc1cccc(C2=Nc3ccc(C#Cc4ccccn4)cc3NC(=O)C2)c1	870 nM	
CN1CCN(C(=O)c2cccc(C3=Nc4ccc(C#Cc5ccccc5)cc4NC(=O)C3)c2)CC1	1040 nM	
COc1cccc(C2=Nc3ccc(C#Cc4ccccc4)cc3NC(=O)C2)c1	962 nM	
Cc1ccc2c(c1)NC(=O)CC(c1cccc(C#N)c1)=N2	2900 nM	
COc1cccc(C2=Nc3ccc(C)cc3NC(=O)C2)c1	6580 nM	
COc1ccc(C2C(C(=O)OCCN(C)C)=C(C)N=C3SC(c4c(Cl)cccc4Cl)=CN32)cc1 (configuration not stated)		IC50 [2]: 30000 nM
N#Cc1cccc(C2=Nc3cc(OCC(N)=O)c(C#Cc4ccccc4)cc3NC(=O)C2)c1	2400 nM	
N#Cc1cccc(C2=Nc3cc(N4CC[S+]([O-])CC4)c(C#Cc4ccccc4)cc3NC(=O)C2)c1	446 nM	
Cc1ccc2c(c1)NC(=O)CC(c1cccc(C(F)(F)F)c1)=N2	1530 nM	
N#Cc1cccc(C2=Nc3ccc(C#Cc4ccc(F)cc4F)cc3NC(=O)C2)c1	480 nM	
CC(C)(O)C#Cc1ccc2c(c1)NC(=O)CC(c1cccc(C#N)c1)=N2	26000 nM	
C=C(C)C#Cc1ccc2c(c1)NC(=O)CC(c1cccc(C#N)c1)=N2	400 nM	
N#Cc1cccc(C2=Nc3ccc(C#Cc4nccs4)cc3NC(=O)C2)c1	300 nM	
O=C1CC(c2cccc(C(=O)N3CCOCC3)c2)=Nc2ccc(C#Cc3ccccc3)cc2N1	360 nM	
CC(C)O/C(=C\n1cncn1)c1ccc(Cl)cc1Cl		IC50 [2]: 6000 nM
N#Cc1cccc(C2=Nc3cc(N4CCOCC4)c(C#Cc4ccccc4)cc3NC(=O)C2)c1	378 nM	
CN1CCN(c2cc3c(cc2C#Cc2ccccc2)NC(=O)CC(c2cccc(C#N)c2)=N3)CC1	278 nM	

More lines, in order of falling IC50 [1], values ahead:

IC50 [1]	SMILES	also measured
268 nM	O=C1CC(c2cccc(C(F)(F)F)c2)=Nc2ccc(C#Cc3ccccc3)cc2N1	
160 nM	N#Cc1cccc(C2=Nc3cc(N4CCS(=O)(=O)CC4)c(C#Cc4ccccc4)cc3NC(=O)C2)c1	
154 nM	O=C1CC(c2cccc(I)c2)=Nc2ccc(C#Cc3ccccc3)cc2N1	
92 nM	COc1cc2c(cc1C#Cc1ccccc1)NC(=O)CC(c1cccc(C#N)c1)=N2	
82 nM	COC1CCN(c2cc3c(cc2C#Cc2ccccc2)NC(=O)CC(c2cccc(C#N)c2)=N3)CC1	
80 nM	O=C1CC(c2cccc(Cl)c2)=Nc2ccc(C#Cc3ccccc3)cc2N1	
76 nM	N#Cc1cccc(C2=Nc3ccc(C#Cc4ccccc4Cl)cc3NC(=O)C2)c1	
68 nM	COc1ccc(C#Cc2ccc3c(c2)NC(=O)CC(c2cccc(C#N)c2)=N3)cc1	
64 nM	Cc1ccc(C#Cc2ccc3c(c2)NC(=O)CC(c2cccc(C#N)c2)=N3)cc1	
60 nM	CN(C)c1cc2c(cc1C#Cc1ccccc1)NC(=O)CC(c1cccc(C#N)c1)=N2	
40 nM	N#Cc1cccc(C2=Nc3cc(N4CCSCC4)c(C#Cc4ccccc4)cc3NC(=O)C2)c1	
34 nM	N#Cc1cccc(C2=Nc3ccc(C#Cc4ccc(F)cc4)cc3NC(=O)C2)c1	
34 nM	N#Cc1cccc(C2=Nc3ccc(C#Cc4ccccc4)cc3NC(=O)C2)c1	Activity [3]: inactive; Activity [4]: inactive; Activity [5]: inactive; Activity [6]: inactive; Activity [7]: inactive; Activity [8]: Active; Activity [9]: Active; Activity [10]: 25%
32 nM	N#Cc1cccc(C2=Nc3ccc(C#Cc4cccs4)cc3NC(=O)C2)c1	
30 nM	N#Cc1cccc(C2=Nc3ccc(C#Cc4ccccc4F)cc3NC(=O)C2)c1	
28 nM	COCCOc1cc2c(cc1C#Cc1ccccc1)NC(=O)CC(c1cccc(C#N)c1)=N2	
26 nM	CC(C)(C)NC(=O)COc1cc2c(cc1C#Cc1ccccc1)NC(=O)CC(c1cccc(C#N)c1)=N2	
26 nM	O=C1CC(c2ccccc2)=Nc2ccc(C#Cc3ccccc3)cc2N1	
18 nM	N#CCOc1cc2c(cc1C#Cc1ccccc1)NC(=O)CC(c1cccc(C#N)c1)=N2	
